Data reported in US20150250824A1, “METHODS AND COMPOSITIONS FOR EXPANSION OF STEM CELLS AND OTHER CELLS” (The Research Foundation For The State University Of New York, priority 2014, published 2015).
“Also recorded” adds a separate entry of the source. Counter-ions that a name gives are not always drawn. Like-named read-outs stand apart in the source and are kept apart here.

How the values were obtained:
[1] = system: CD34+ cells isolated from human umbilical CB; type: cell-based; details: for number of large megakaryocytes / shortening of maturation compared to control: 4-5 day culture; for CD41 population compared to control: 4 days of culture, flow analysis; for ploidy development compared to control or 616452 alone: 4 and 8 days induction
Method: Megakaryocytes derived from CB in vitro are usually smaller than megakaryocytes derived from bone marrow or mobilized peripheral blood from adults. Small megakaryocyte size may contribute to delayed platelet engraftment when cord blood is used for bone marrow transplantation. To test whether 616452 is able to increase fetal/neonatal megakaryocyte size and ploidy, CD34+ cells isolated from human umbilical CB were cultured in StemSpan SFEM containing SCF, TPO and Flt-3 Ligand. CB CD34+ cells in the presence of TPO after 4 or 8 day culture, were morphologically consistent of a relative homogenous population of small cells (FIG. 19A) and megakaryocytic features such as large nuclear size and cytoplasmic mass were hardly detectable.
One of the unique characteristics of megakaryocytes is the ploidy development of their nuclei, which can be easily measured using propidium iodide (PI), a fluorescent intercalating agent that binds to nucleic acids. Megakaryocyte (Mk) ploidy correlates well with their maturation and platelet production. […] Out of 10,000 events, the control cells only elicited only 1 cell with a ploidy of 16N and nothing thereon greater (FIG. 20A).

[2] = system: hematopoietic stem/progenitor cells; assay: Dose determination of BIX, Z and UNC on expansion of hematopoietic stem/progenitor cells; type: cell-based; details: at concentrations of 0.25×
From the text: The inventors have also determined the dose for BIX, Z and UNC on the expansion of hematopoietic stem/progenitor cells. […] UNC (UNC0638) and BIX are quite similar in their impact of expansion of hematopoietic stem/progenitor cells.

human CB CD34+ cells = assay: Ex vivo expansion of cord blood CD34+ cells in HSC media with small molecules; type: cell-based; details: for retention/expansion of CD34+CD38− stem/progenitor cells compared to control: 5 days, HSC media with SCF, TPO, Flt-3 ligand 100 ng/ml each, Z 100 nM, Bix 1 μM, T 10 μM
Method: (§1) CD34+ cells were cultured in […] medium ([…] Technologies, Vancouver, BC, Canada) supplemented with 10% FBS, 100 ng/ml hSCF (human stem cell factor), 100 ng/ml hTPO (human thrombopoietin), 100 ng/ml hFLT-3 ligand (Human Fms-related Tyrosine Kinase 3) (Peprotech, Rocky Hill, N.J., USA) and 100 U/ml penicillin/streptomycin (Gibco). Human cortex Neural Progenitor Cell line (hcx NSC) was maintained in ReNcell medium: ReNcell NSC Maintenance medium (Millipore) supplemented with 20 ng/ml human EGF, 20 ng/ml human bFGF (Peprotech) and 100 U/ml penicillin/streptomycin. For expansion of cells targeted for cell sorting, we used the same media containing a different cytokine cocktail of 100 ng/ml SCF, TPO and 10 ng/ml IL-3.
Cells were centrifuged for 5 minutes at 200 G at 4° C. Cells were resuspended with CD34, 38 and/or 41 conjugated antibodies for 30 minutes on ice. Cells were then washed with 2 ml of PBS and centrifuged for 5 minutes at 200 G at 4° C. The final pellet was resuspended using 300 μl of 2% formalin. […]
Recent studies in iPS cell reprogramming have discovered numerous small molecules modulating iPS cell reprogramming through different cellular mechanisms. These could include cellular signaling pathways (such as Wnt signaling and TGF beta) and epigenetic mechanisms, such as DNA methyltransferases, histone methylation and histone deacetylation. We have screened small molecule modulators involving these cellular mechanisms for hematopoietic stem/progenitor cell expansion. […] CB CD34+ cells were cultured for 5 days in HSC media containing SCF, TPO, and Flt-3 ligand at 100 ng/ml each. […] Bix (BIX01294), trihydrochloride hydrate is a histone methyltransferase (HMTase) G9a inhibitor (FIG. 15).
Previously we have shown that stem cell protein is a robust stimulator for hematopoietic stem/progenitor cell expansion via recruitment of various epigenetic factors such as histone deacylases and DNA methyltransferases (Yang et al, J Biol Chem. 2012, 13; 287(3): 1996-2005). […] Based on this finding, we screened the LSD1 inhibitors for the expansion of hematopoietic precursor cells. hUCB CD34+ cells were cultured for 5 days in HSC media containing SCF, TPO, and Flt-3 ligand at 100 ng/ml each.

[3] = system: CD34+ cells isolated from peripheral blood of G-CSF-mobilized donors; assay: Ex vivo culture of mobilized peripheral blood CD34+ cells with compounds, CD34/CD38 flow cytometry; type: cell-based, human; details: 11 days, minimal cytokines; for effect on CD34+CD38+ and CD34+CD38− populations: C, 6, F at 10 μM, Z at 100 nM
Method: CD34+ cells were isolated from cord blood or from peripheral blood of G-CSF-mobilized adult donors and cultured as follows. Mononuclear cells (MNCs) were isolated using a simple red blood cell lysis (15 minutes at room temperature using BD PharmLyse) or using Ficoll-Paque density gradient centrifugation (Jaatinen and Laine, Current Protocols Stem Cell Biol. 1:2A.1.1-2A.1.4. (2007)). The cells were then incubated with MACS CD34+ Microbead kit (Miltenyi Biotec, Auburn, Calif.) and run through a magnetic column resulting in selection for CD34+ cells. […] Human cortex neural stem cell (hcx NSC) cells were purchased from Millipore.
as §1
Cells were centrifuged for 5 minutes at 200 G at 4° C. Cells were resuspended with CD34, 38 and/or 41 conjugated antibodies for 30 minutes on ice. Cells were then washed with 2 ml of PBS and centrifuged for 5 minutes at 200 G at 4° C. The final pellet was resuspended using 300 μl of 2% formalin.
CD34+ cells isolated from peripheral blood of G-CSF-mobilized donors were cultured for 11 days with minimal cytokines and the 4 chemical cocktail (C6FZ). […] The population bearing CD34+/CD38− is associated with long-term repopulating HSCs.
CD34+ cells isolated from the peripheral blood of G-CSF-mobilized donors were next cultured for 11 days with minimal cytokines and the individual compounds, C, 6, F and Z (FIG. 13).

eiNSCs = assay: In vitro expansion of episome-derived induced neural stem cells (eiNSCs); type: cell-based, human; details: added after the first passage in ReNcell medium
Method: For reprogramming of CD34+ cells to iNSCs by an OCT4 episomal vector, the CD34+ cells were transduced with an EBNV1-based pCEP4-OCT4 expression plasmid in which the CMV promoter is replaced by the SFFV promoter. Cells were transduced by electroporation using the Human CD34 Cell NUCLEOFECTOR® Kit (Lonza, Koln, Germany). Post-transduction, cells were incubated with hypoxia (5% 02), following the lentivirus reprogramming strategy described above. Dzep (3-deazaneplanocin, Sigma) was added to the solution after the first passage in ReNcell medium to maintain the cells for a longer period before senescence/quiescence.
While direct reprogramming using lentivirus does provide an increasingly popular approach that bypasses the iPS cell state, the issue of random integration of foreign DNA into the host's genome still remains. We attempted to generate iNSCs from CB by an integration-free method. CB CD34^+ were electroporated with an episomal vector containing a high expression OCT4 gene. […] In addition, eiNSCs are able to differentiate into neural and glial cells as neuron and astrocyte markers were observed after random differentiation. However, eiNSCs are slower in growth rate with a doubling time of approximately 36 hours where iNSCs have a doubling time of approximately 24 hours. […]

## Cc1cccc(-c2nn(C(=S)Nc3ccccc3)cc2-c2ccnc3ccccc23)n1 [compound 616454, 3-(6-Methylpyridin-2-yl)-4-(4-quinolyl)-1-phenylthiocarbamoyl-1H-pyrazole]
[1]
  number of large megakaryocytes / shortening of maturation compared to control: little or no effect
  CD41 population compared to control: no any significant difference from control

## COc1cc2c(NC3CCN(C(C)C)CC3)nc(C3CCCCC3)nc2cc1OCCCN1CCCC1 [UNC, 2-Cyclohexyl-6-methoxy-N-[1-(1-methylethyl)-4-piperidinyl]-7-[3-(1-pyrrolidinyl)propoxy]-4-quinazolinamine]
[2]
  toxicity: no significant toxicity

## COc1cc2nc(N3CCCN(C)CC3)nc(NC3CCN(Cc4ccccc4)CC3)c2cc1OC [Bix, 2-(Hexahydro-4-methyl-1H-1,4-diazepin-1-yl)-6,7-dimethoxy-N-[1-(phenylmethyl)-4-piperidinyl]-4-quinazolinamine trihydrochloride hydrate]
[2]
  toxicity: no significant toxicity
Human CB CD34+ cells; trihydrochloride hydrate
  retention/expansion of CD34+CD38− stem/progenitor cells compared to control: retained a large portion of CD34+CD38− stem/progenitor cells; also recorded: enhances retention and expansion of CD34+CD38-population

## C=C[C@@]1(C)CC(=O)[C@]2(O)[C@@]3(C)[C@@H](O)CCC(C)(C)[C@@H]3[C@H](O)[C@H](OC(C)=O)[C@@]2(C)O1 [F, 7β-acetoxy-8,13-epoxy-1α,6β,9α-trihydroxylabd-14-en-11-one]
[3]
  effect on CD34+CD38+ and CD34+CD38− populations: induce a significant proportion of CD34+CD38+ population; also recorded: induce a significant proportion of CD34+CD38+ cells; also recorded: induced a significant expansion of CD34+CD38+

## NC(=O)c1ccc(-c2nc(-c3ccc4c(c3)OCO4)c(-c3ccccn3)[nH]2)cc1 [SB431542, 4-[4-(1,3-benzodioxol-5-yl)-5-(2-pyridinyl)-1H-imidazol-2-yl]benzamide]
[1]
  number of large megakaryocytes / shortening of maturation compared to control: little or no effect
  ploidy development compared to control or 616452 alone: no significant deviation in ploidy development
  CD41 population compared to control: marginal decrease in the CD41 population
[1]; listed as SB431452
  ploidy development compared to control or 616452 alone: no significant difference

## Nc1nccc2c1ncn2[C@@H]1C=C(CO)[C@@H](O)[C@H]1O [Z, 5R-(4-amino-1H-imidazo[4,5-c]pyridin-1-yl)-3-(hydroxymethyl)-3-cyclopentene-1S,2R-diol]
eiNSCs
  additional passages of eiNSC growth: two
[3]
  effect on CD34+CD38+ and CD34+CD38− populations: best effect enhancing both CD34+CD38- and CD34+ and CD38+ positive cells; also recorded: ability to enhance both the population of single positive (CD34+CD38−) and double positive (CD34+CD38+) cells; also recorded: the most effects on the CD34+CD38− population
[2]
  toxicity: no significant toxicity
Human CB CD34+ cells
  retention/expansion of CD34+CD38− stem/progenitor cells compared to control: retained a large portion of CD34+CD38− stem/progenitor cells; also recorded: enhances retention and expansion of CD34+CD38-population; also recorded: promotes hematopoietic precursor immunophenotype and expands CD34+CD38− population

## Cc1c[nH]c(-c2cnc(NCCNc3ccc(C#N)cn3)nc2-c2ccc(Cl)cc2Cl)n1 [CHIR99021, 6-[[2-[[4-(2,4-dichlorophenyl)-5-(5-methyl-1H-imidazol-2-yl)-2 pyrimidinyl]amino]ethyl]amino]-3-pyridinecarbonitrile]
[3]; listed as C
  effect on CD34+CD38+ and CD34+CD38− populations: does not have much of effect; also recorded: did not have much of effect
  proliferation and maturation of CD34+ cells compared to control: rapidly proliferates bone marrow CD34 cells leading to their maturation at a significantly rapid rate compared to control; also recorded: rapidly proliferated the bone marrow CD34+ cells, leading to their maturation at a significantly rapid rate compared to control

## Cl.N[C@H]1C[C@@H]1c1ccccc1 (racemic) [T, (±)-trans-2-Phenylcyclopropylamine hydrochloride]
Human CB CD34+ cells; 10 μM, 5 day culture
  fold increase in CD34+CD38− cells compared to the input: approximately 60 fold
  fold increase in total cell counts compared to the input: ~45 fold
Human CB CD34+ cells; hydrochloride
  retention/expansion of CD34+CD38− stem/progenitor cells compared to control: retained a significant fraction of CD34+CD38− cells and expanded this population; also recorded: promotes hematopoietic precursor immunophenotype and expands CD34+CD38− population
